From US8298798B2, “Production of C5-C8 alcohols using evolved enzymes and metabolically engineered microorganisms” (The Regents of the University of California, priority 2008, dated 2012) come the findings set out here.

Structures are written as SMILES.

The assay has as its target F381L/V461A KIVD (Lactococcus lactis, UniProt A0A0B8QZ66, form not given/V461A). The experiment in a line: coupled enzymatic assay of KIVD decarboxylation activity. It is filed as biochemical. Particulars: substrate of V461A/F381L KIVD, 30° C., pH 6.8. An excerpt:
Protein Expression and Purification. Both gene fragments encoding wild type and F381L/V461A KIVD were amplified from plasmid pZE_LeuABCDKA6 using primers hiskivd_tevfwd and hiskivd_bamrev. After digestion with BamHI, the gene fragments were inserted into expression plasmid pQE9 (Qiagen) to yield pQE_hiskivd_wt and pQE_hiskivd_FL. The ADH6 gene fragment was amplified from yeast genomic DNA using primers hisadh_tevfwd and hisadh_bamrev, digested with BamHI and inserted into pQE9 to generate pQE_hisadh6. Similarly, genes encoding G462D and G462D/S139G LeuA were amplified from plasmid pZE_LeuABCDKA6 using primers hisleua_tevfwd and hisleua_bamrev. After digestion with BamHI, the PCR products were ligated into pQE9 to create pQE_hisleua_GD and pQE_hisleua_GS. […]
Enzymatic Assay of KIVD. […] Inc. Protein concentration was determined by measuring UV absorbance at 280 nm. The decarboxylation activity of KIVD was measured at 30° C. using a coupled enzymatic assay method. […] The reactions were started by adding 2 μl KIVD (final concentration: for KIV, 20 nM wt KIVD, 200 nM F381L/V461A KIVD; for KHV, 50 nM both), and the consumption of NADPH was monitored at 340 nm (extinction coefficient, 6.22 mM^−1 cm^−1). Kinetic parameters (kcat and Km) were determined by fitting initial velocity data to the Michaelis-Menten equation using Origin.

Take `CC(C)C(=O)C(=O)O` [2-Ketoisovalerate]: the Km (as a rule, the substrate concentration at which the rate is half of its maximum) came to 7.7 mM.

As for `CC[C@H](C)CC(=O)C(=O)O` [(S)-2-keto-4-methylhexanoate], the Km is 0.22 mM.
